No end group written: not given here.
Assays:
HLA-DR1 molecules [1] = test: release of biotin-labeled hMBP(90-102) from HLA-DR1 in the presence of unlabeled hMBP (assay II); assay type: binding, human; details: Table 37, unlabeled hMBP(90-102) 250 μM
HLA-DR1 molecules [2] = molecular target: T1, HLA-DR1 molecules (Homo sapiens, UniProt P01903+P01911, A100R/D57E/F55L/F60I/F76Y/I96L/L162R/M171V/P40L/Q125E/R42F/V115G/Y59C); test: binding of biotin-labeled hMBP(90-102) to "empty" HLA-DR1 (assay IV); details: Table 39; AE101 series compound 64 μM; biotin-labeled hMBP(90-102) 50 μM, 37° C., 1 h; no enhancement = 1
T1 construct: The HLA-DR alpha gene was truncated after Asn^192 to remove transmembranal and cytoplasmic regions from the protein product; A gene coding for the HLA-DR1 beta chain was truncated after position Lys^198, again to delete the transmembranal region; made in house; host or cells: insect cell line printed as HS / H5 (Invitrogen), co-infected with two baculoviruses; concentrated culture supernatant captured on 12CA5 antibody

HLA-DR1 molecules [3] = test: release of biotin-labeled hMBP(90-102) from HLA-DR1 without unlabeled antigenic peptide (assay I); assay type: binding, human; details: Table 37, no unlabeled hMBP(90-102)
HLA-DR1 molecules [4] = test: exchange of biotinylated hMBP(90-102) into antigenic peptide-loaded HLA-DR1 (assay III); assay type: binding, human; details: Table 38; HLA-DR1 preloaded with unlabeled hMBP(90-102) 50 μM; exchange with biotin-labeled hMBP(90-102) 50 μM, 37° C., 1 h; fraction of positive control o.d.; no enhancement = 0.08

For “cyclic LRMKLPK (bridge (positions not given here); also: cyclic, ring type not given here) [AE381, “head-to-tail” cyclization from the amino-terminus to the carboxyl-terminus of AE114]”, the “Relative Release, With unlabeled hMBP(90-102), 1 μM” value (HLA-DR1 molecules [1]; AE101 series compound 1 μM) was 0.09, the “Relative Release, With unlabeled hMBP(90-102), 64 μM” value (HLA-DR1 molecules [1]; AE101 series compound 64 μM) was −0.19 and the “Relative Enhancement” value (HLA-DR1 molecules [2]) was 1.84. For the same substance, the “Relative Release, Without unlabeled hMBP(90-102), 1 μM” value (HLA-DR1 molecules [3]; AE101 series compound 1 μM) was 0.64, the “Relative Release, Without unlabeled hMBP(90-102), 64 μM” value (HLA-DR1 molecules [3]; AE101 series compound 64 μM) was 0.5 and the “Relative Binding” value (HLA-DR1 molecules [4]) was −0.12.

— patent US6835382B2, “Ii peptide therapeutics to enhance antigen presentation” (University of Massachusetts, priority 1996, dated 2004)
